Laboratory results: US20070238765A1, “Heterocyclic GABAA subtype selective receptor modulators” (Roche Palo Alto LLC, priority 2006, published 2007)

What was measured:
[1] = target: T1, GABAA α2β3γ2 (Homo sapiens, UniProt P18507+P28472+P47869); assay: 35S-TBPS binding assay, HEK293 membranes with GABAA α2β3γ2 construct; conditions: 35S-TBPS 5 nM, GABA 1 μM, 2 hours at room temperature, read-out: α2β3γ2 (35S-TBPS binding, pIC50) (converted)
T1 construct: expressed in transfected cells; host or cells: HEK293
Experimental: (§1) The binding assay is based on the assay reported by K. Gee et al., Eur. J. Pharmacol. 1987, 136, 419-423.
(§2) Homogenate preparation: Membrane preparations of HEK293 cells containing either GABAA α1β2γ2 or GABAA α2β3γ2 constructs were performed according to a modified procedure previously described by Gee et al. (supra). Whole HEK 293 cells in D-PBS (calcium/magnesium free) buffer adjusted to pH 7.4 were centrifuged at 7,280×g for 20 m. After discarding the supernatant, the pellet was resuspended in the buffer and centrifuged at 1,820×g for 10 m. Afterwards, the supernatant was discarded and the pellet resuspended in ice-cold preparation buffer (50 mM Tris HCl pH 7.4, 4° C. and 150 mM KCl), homogenized for 30 sec using a Brinkmann Polytron PT3000 (setting 6) and centrifuged at 48,000×g for 30 m at 4° C. The centrifugation and homogenization procedure was repeated two more times for a total of 3 times before resuspending the membranes at a final protein concentration of 0.5 mg/mL. Aliquots (30 mL) of the final membrane preparation were then centrifuged at 48,000×g for 30 m, and the resulting pellets were stored at −80° C. until required.
(§3) 35S-TBPS binding assay. Membrane pellets containing either GABAA α1β2γ2 or GABAA α2β3γ2 constructs were thawed on ice, resuspended in 10 mL of 50 mM Tris HCl pH7.4, 4° C. and 150 mM KCl and centrifuged at 48,000×g, 30 m at 4° C. After discarding the supernatant, the pellet was resuspended in 30 mL incubation buffer (50 mM Tris HCl pH 7.4, 25° C. and 150 mM KCl) at approximately 0.5 mg/mL protein concentration. In 35S-TBPS competition studies, HEK293 membranes were incubated with 35S-TBPS (5 nM final) and GABA (1 μM) in the absence or presence of competitor at concentrations ranging from 0.01 nM to 10 μM in 125 μL incubation buffer for 2 hours at room temperature (˜22° C.). Non-specific binding was assayed with picrotoxin (100 μM final concentration). The binding reaction was terminated by vacuum filtration through GF/B filters previously soaked in 0.1% polyethylenimine followed by 3×1 mL washes with ice cold wash buffer (50 mM Tris HCl pH7.4, 4° C. and 150 mM KCl). Measurement of bound radioactivity was performed using a Packard Microplate 96 well topcount scintillation counter. Analysis of competition curves and estimation of pIC50 values of test compounds were performed using the software programs ActivityBase and/or Prism (version 3.0).

[2] = target: T2, GABAA α1β2γ2 (Homo sapiens, UniProt P14867+P18507+P47870); assay: 35S-TBPS binding assay, HEK293 membranes with GABAA α1β2γ2 construct; conditions: 35S-TBPS 5 nM, GABA 1 μM, 2 hours at room temperature, read-out: α1β2γ2 (35S-TBPS binding, pIC50) (converted)
T2 construct: expressed in transfected cells; host or cells: HEK293
Experimental: as §1, §2, §3

T2 sequence (P14867 28-456): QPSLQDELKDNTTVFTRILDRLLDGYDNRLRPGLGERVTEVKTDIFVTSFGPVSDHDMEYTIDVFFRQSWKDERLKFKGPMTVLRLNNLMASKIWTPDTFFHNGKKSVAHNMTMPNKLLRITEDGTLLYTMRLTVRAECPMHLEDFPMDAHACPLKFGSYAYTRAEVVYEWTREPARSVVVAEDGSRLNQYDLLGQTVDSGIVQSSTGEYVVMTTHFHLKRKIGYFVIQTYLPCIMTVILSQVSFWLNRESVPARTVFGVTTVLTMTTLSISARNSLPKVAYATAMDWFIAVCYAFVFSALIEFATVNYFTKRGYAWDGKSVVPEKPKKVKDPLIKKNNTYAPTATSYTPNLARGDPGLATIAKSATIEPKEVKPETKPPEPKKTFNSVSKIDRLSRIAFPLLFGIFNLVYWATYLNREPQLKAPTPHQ
T2 sequence (P47870 25-512 limits assumed): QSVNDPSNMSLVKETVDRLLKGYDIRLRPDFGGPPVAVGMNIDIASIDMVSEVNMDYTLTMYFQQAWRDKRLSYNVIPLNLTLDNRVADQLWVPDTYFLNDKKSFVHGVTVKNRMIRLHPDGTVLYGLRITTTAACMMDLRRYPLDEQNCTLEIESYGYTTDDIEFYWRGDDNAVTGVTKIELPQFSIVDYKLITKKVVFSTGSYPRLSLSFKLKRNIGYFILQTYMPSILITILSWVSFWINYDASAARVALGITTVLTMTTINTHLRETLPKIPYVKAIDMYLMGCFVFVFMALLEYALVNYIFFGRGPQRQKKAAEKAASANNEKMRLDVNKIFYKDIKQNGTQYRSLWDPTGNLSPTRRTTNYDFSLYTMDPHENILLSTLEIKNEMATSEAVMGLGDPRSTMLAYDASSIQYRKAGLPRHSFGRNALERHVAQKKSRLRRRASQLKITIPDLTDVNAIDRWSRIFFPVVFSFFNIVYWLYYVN
T2 sequence (P18507 40-475): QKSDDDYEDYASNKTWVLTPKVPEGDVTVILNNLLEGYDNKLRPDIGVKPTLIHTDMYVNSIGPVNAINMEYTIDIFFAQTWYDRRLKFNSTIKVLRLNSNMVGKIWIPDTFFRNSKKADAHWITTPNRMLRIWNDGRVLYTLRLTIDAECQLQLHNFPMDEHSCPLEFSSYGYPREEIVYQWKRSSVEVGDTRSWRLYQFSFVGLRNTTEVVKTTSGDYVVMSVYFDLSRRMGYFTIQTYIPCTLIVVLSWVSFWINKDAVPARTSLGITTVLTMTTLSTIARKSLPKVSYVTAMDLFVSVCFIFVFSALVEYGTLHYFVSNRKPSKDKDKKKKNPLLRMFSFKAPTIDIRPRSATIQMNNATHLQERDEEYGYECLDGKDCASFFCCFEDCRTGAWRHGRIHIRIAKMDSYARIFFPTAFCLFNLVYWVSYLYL
T1 sequence (P47869 29-451): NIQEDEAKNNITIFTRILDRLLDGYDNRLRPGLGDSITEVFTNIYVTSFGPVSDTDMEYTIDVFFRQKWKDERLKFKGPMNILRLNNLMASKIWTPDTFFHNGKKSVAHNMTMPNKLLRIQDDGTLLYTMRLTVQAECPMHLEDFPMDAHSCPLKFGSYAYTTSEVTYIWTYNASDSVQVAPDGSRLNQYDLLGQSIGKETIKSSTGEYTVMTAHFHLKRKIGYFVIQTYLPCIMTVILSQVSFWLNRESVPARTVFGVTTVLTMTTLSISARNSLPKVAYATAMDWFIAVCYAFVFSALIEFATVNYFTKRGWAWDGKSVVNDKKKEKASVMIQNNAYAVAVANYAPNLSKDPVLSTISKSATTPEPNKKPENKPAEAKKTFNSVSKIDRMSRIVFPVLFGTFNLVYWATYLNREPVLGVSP
T1 sequence (P28472 26-473): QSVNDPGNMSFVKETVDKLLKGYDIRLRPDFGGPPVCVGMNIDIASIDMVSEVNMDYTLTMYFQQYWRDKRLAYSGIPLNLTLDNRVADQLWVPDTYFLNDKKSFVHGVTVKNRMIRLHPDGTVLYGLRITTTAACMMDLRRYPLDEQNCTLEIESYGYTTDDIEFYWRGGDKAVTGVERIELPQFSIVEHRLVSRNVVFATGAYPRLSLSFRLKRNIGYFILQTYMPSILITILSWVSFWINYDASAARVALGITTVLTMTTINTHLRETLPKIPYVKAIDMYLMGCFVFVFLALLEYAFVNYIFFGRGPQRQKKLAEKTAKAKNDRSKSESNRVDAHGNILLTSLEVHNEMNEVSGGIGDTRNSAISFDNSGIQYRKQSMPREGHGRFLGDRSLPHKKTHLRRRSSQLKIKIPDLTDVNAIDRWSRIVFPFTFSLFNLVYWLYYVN
T1 sequence (P18507 40-475): as the sequence (P18507 40-475) above

Row | Structure (SMILES) | IC50 [1] [nM] | melting point [°C] | IC50 [2] [nM]
1 | Cn1nc2c(-c3ccc(Cl)cc3Cl)cccc2c1CN1CCOC1=O [I-8, 3-[7-(2,4-Dichloro-phenyl)-2-meth-yl-2H-indazol-3-yl-methyl]-oxazolidin-2-one] | 1510 | 165.9 to 167.5 | 6310
2 | Cn1nc2c(-c3ccc(Cl)cc3Cl)cccc2c1Cc1nnnn1CCO [I-10, 2-{5-[7-(2,4-Dichloro-phenyl)-2-methyl-2H-inda-zol-3-ylmethyl]-tetrazol-1-yl}-eth-anol] | 398 | 66.1 to 87.2 | > 10000
3 | Cn1nc2c(-c3ccc(Cl)cc3Cl)cccc2c1Cc1nnn(CCO)n1 [I-11, 2-{5-[7-(2,4-Dichloro-phenyl)-2-methyl-2H-inda-zol-3-ylmethyl]-tetrazol-2-yl}-eth-anol] | 347 | 147.7 to 151.1 | 1510
4 | Cn1nc2c(-c3ccc(Cl)cc3Cl)cccc2c1Cc1nnn(CS(C)(=O)=O)n1 [I-12, 7-(2,4-Dichloro-phenyl)-3-(2-meth-anesulfonylmethyl-2H-tetra-zol-5-ylmethyl)-2-meth-yl-2H-indazole] | 269 | 156.6 to 157.8 | 1150
5 | Cn1nc2c(-c3ccc(Cl)cc3Cl)cccc2c1C(=O)c1ncn[nH]1 [I-15, [7-(2,4-Dichloro-phenyl)-2-meth-yl-2H-indazol-3-yl]-(2H-[1,2,4]tri-azol-3-yl)-meth-anone] | 331 | 283.9 to 284.9 | > 10000
6 | Cn1nc2c(-c3ccc(Cl)cc3Cl)cccc2c1C(=O)c1nnn[nH]1 [I-18, [7-(2,4-Dichloro-phenyl)-2-meth-yl-2H-indazol-3-yl]-(1H-tetra-zol-5-yl)-methanone] | 110 | 209.8 to 210.3 | 933
7 | Cn1nnnc1Cc1c2cccc(-c3ccc(Cl)cc3Cl)c2nn1C [I-20, 7-(2,4-Dichloro-phenyl)-2-meth-yl-3-(1-methyl-1H-tetra-zol-5-ylmethyl)-2H-inda-zole] | 1700 | 183.9 to 185.4 | –
8 | Cn1nc2c(-c3ccc(Cl)cc3Cl)cccc2c1-n1ccnc1 [I-22, 7-(2,4-Dichloro-phenyl)-3-imi-dazol-1-yl-2-methyl-2H-inda-zole] | 355 | 63.2 to 89.4 | 3160
9 | Cn1nc2c(-c3ccc(Cl)cc3Cl)cccc2c1-n1cnnc1 [I-23, 7-(2,4-Dichloro-phenyl)-2-meth-yl-3-[1,2,4]triazol-4-yl-2H-inda-zole] | 4070 | 117.9 to 121.3 | > 10000
10 | Cn1nc2c(-c3ccc(Cl)cc3Cl)cccc2c1Cc1nc[nH]n1 [I-31, 7-(2,4-Dichloro-phenyl)-2-meth-yl-3-(1H-[1,2,4]triazol-3-yl-methyl)-2H-indazole] | 355 | 206.3 to 207 | 4170
11 | Cn1nnc(Cc2c3cccc(-c4ccc(Cl)cc4Cl)c3nn2C)n1 [I-33, 7-(2,4-Dichloro-phenyl)-2-meth-yl-3-(2-methyl-2H-tetra-zol-5-ylmethyl)-2H-inda-zole] | 102 | 158.8 to 160.5 | 1480
12 | Cn1nc2c(-c3ccc(Cl)cc3Cl)cccc2c1CCc1ncn[nH]1 [I-34, 7-(2,4-Dichloro-phenyl)-2-meth-yl-3-[2-(2H-[1,2,4]tri-azol-3-yl)-ethyl]-2H-inda-zole] | 309 | 92 to 115.5 | 9550
13 | Cn1nc2c(-c3ccc(Cl)cc3Cl)cccc2c1CCC1=NCCN1 [I-38, 7-(2,4-Dichloro-phenyl)-3-[2-(4,5-di-hydro-1H-imidazol-2-yl)-eth-yl]-2-methyl-2H-inda-zole] | > 10000 | 60.5 to 65.1 | > 10000
14 | Cn1nc2c(-c3ccc(Cl)cc3Cl)cccc2c1-c1nnco1 [I-39, 7-(2,4-Dichloro-phenyl)-2-meth-yl-3-[1,3,4]oxadiazol-2-yl-2H-inda-zole] | 2820 | 199 to 201.2 | > 10000
15 | Cn1nc2c(-c3ccc(Cl)cc3Cl)cccc2c1C1=NCCN1 [I-41, 7-(2,4-Dichloro-phenyl)-3-(4,5-di-hydro-1H-imidazol-2-yl)-2-meth-yl-2H-indazole] | 4680 | 212.8 to 214.5 | > 10000
16 | Cn1nc2c(-c3ccc(Cl)cc3Cl)cccc2c1CCc1nnn[nH]1 [I-46, 7-(2,4-Dichloro-phenyl)-2-meth-yl-3-[2-(1H-tetrazol-5-yl)-eth-yl]-2H-indazole] | 603 | 209.4 to 210.3 | 479
17 | Cn1nc2c(-c3ccc(Cl)cc3Cl)cccc2c1/C=C/c1nnn[nH]1 [I-47, 7-(2,4-Dichloro-phenyl)-2-meth-yl-3-[(E)-2-(1H-tetra-zol-5-yl)-vinyl]-2H-inda-zole] | 151 | 256.8 to 258.1 | 1200
18 | Cn1nc2c(-c3ccc(Cl)cc3Cl)cccc2c1C1=NCCO1 [I-48, 7-(2,4-Dichloro-phenyl)-3-(4,5-di-hydro-oxazol-2-yl)-2-meth-yl-2H-indazole] | 468 | 162.2 to 167.1 | > 10000
19 | Cc1noc(-c2c3cccc(-c4ccc(Cl)cc4Cl)c3nn2C)n1 [I-50, 7-(2,4-Dichloro-phenyl)-2-meth-yl-3-(3-methyl-[1,2,4]oxa-diazol-5-yl)-2H-inda-zole] | 676 | 178 to 178.5 | > 10000
20 | Cn1nc2c(-c3ccc(Cl)cc3Cl)cccc2c1-c1cnco1 [I-51, 7-(2,4-Dichloro-phenyl)-2-meth-yl-3-oxazol-5-yl-2H-inda-zole] | 166 | 167.5 to 169.5 | 3020
21 | Cn1nc2c(-c3ccc(Cl)cc3Cl)cccc2c1Cc1nnn[nH]1 [I-53, 7-(2,4-Dichloro-phenyl)-2-meth-yl-3-(1H-tetrazol-5-yl-methyl)-2H-indazole] | 234 | 270.1 to 275.5 | 2240
